We go through 25 molecules from US7741323B2, “Indene derivatives and process for the preparation thereof” (Korea Research Institute of Chemical Technology, priority 2004, dated 2010).

In one series the target is T1, human PPARγ (Homo sapiens, UniProt P37231).
T1 construct: expressed in transfected cells; host or cells: NIH/3T3 cells (mouse fibroblasts)
T1 sequence (P37231 238-503 limits assumed): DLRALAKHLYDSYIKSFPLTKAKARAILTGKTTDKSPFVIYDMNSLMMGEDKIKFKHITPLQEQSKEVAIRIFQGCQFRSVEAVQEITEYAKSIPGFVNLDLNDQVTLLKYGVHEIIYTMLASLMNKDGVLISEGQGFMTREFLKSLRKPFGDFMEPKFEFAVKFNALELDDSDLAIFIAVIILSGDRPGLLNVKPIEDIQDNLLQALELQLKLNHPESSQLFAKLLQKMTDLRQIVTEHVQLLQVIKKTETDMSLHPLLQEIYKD
Kind of series: PPARγ activation test (GAL-4/luciferase reporter in NIH/3T3 cell). The note with it: GAL-4/human PPARγ LBD luciferase reporter, 24 hrs incubation. Format: cell-based. The procedure: The activity for PPARγ activation was examined as follows.
The vector fused with the ligand binding domain of a human PPARγ gene and the DNA binding site of a yeast GAL-4 gene, and luciferase reporter vector were simultaneously transfected in NIH/3T3 cell. The cells were cultured for 24 hrs. The solution containing the cells at a concentration of 2×10^4 cells/well was placed on a 96-well plate. Then, each of the test compounds of the present invention or the control group without test compounds was added thereto. After incubating for 24 hrs, the cells were subjected to lysis.

Series [1] can be described thus: Adverse side effects check (weight, heart weight, liver weight, GPT/GOT) in high fat diet C57/BL6J mice. Conditions: high fat diet C57/BL6J mice, oral administration for 14 days. Format: in vivo.
Method: To check possible adverse side effects caused by the administration of the compound, the weight, heart weight and liver weight of each mouse were measured. GPT and GOT values were also calculated by employing a kit available in the market.

Turning to `CC(C)OC(=O)C1=C(c2ccccc2)c2ccc(OCCN3CCOCC3)cc2/C1=[N+](/C)[O-]` [Compound 8], the melting point (usually the temperature of the solid-liquid transition) lay in the range of 79 to 81 °C. Further, the midpoint of the response at human PPARγ, the EC50, lay at 25 nM.

As for `CCOC(=O)C1=C(c2ccccc2)c2ccc(OCCCCCc3ccccc3)cc2/C1=[N+](/C)[O-]` [Compound 15, 1-(trans-methylimino-N-oxy)-3-phenyl-6-(5-phenylpentyloxy)-1H-indene-2-carboxylate ethyl ester], the EC50 (as a rule, the concentration giving half of the maximal effect) at human PPARγ turned out to be 150 nM.

The molecule `CCOC(=O)C1=C(c2ccccc2)c2ccc(OCCC3CCCCC3)cc2/C1=[N+](/C)[O-]` [Compound 25, 6-(2-cyclohexylethoxy)-1-(trans-methylimino-N-oxy)-3-phenyl-1H-indene-2-carboxylate ethyl ester] yielded an EC50 at human PPARγ of 50 nM.

As for `CCOC(=O)C1=C(c2ccccc2)c2ccc(OCCN3CCOCC3)cc2/C1=[N+](/C)[O-]` [Compound 33, 1-(trans-methylimino-N-oxy)-6-(2-morpholine-4-ylethoxy)-3-phenyl-1H-indene-2-carboxylate ethyl ester], the melting point was 102 to 104 °C.

`CC(C)NC(=O)C1=C(c2ccccc2)c2ccc(OCCCc3ccccc3)cc2/C1=[N+](/C)[O-]` [Compound 38, 1-(trans-methylimino-N-oxy)-3-phenyl-6-(3-phenylpropoxy)-1H-indene-2-carboxylate isopropyl amide]: the 50% effective concentration (EC50) on human PPARγ amounted to 170 nM.

In turn, `C/[N+]([O-])=C1\C(C(=O)NC2CCCCC2)=C(c2ccccc2)c2ccc(OCCCc3ccccc3)cc21` [Compound 39, 1-(trans-methylimino-N-oxy)-3-phenyl-6-(3-phenylpropoxy)-1H-indene-2-carboxylate cyclohexyl amide] came in with a concentration giving a half-maximal response (EC50) at human PPARγ of 45 nM.

Consider `C/[N+]([O-])=C1\C(C(=O)NC2CCCCC2)=C(c2ccccc2)c2ccc(OCCN3CCOCC3)cc21` [Compound 41, 1-(trans-methylimino-N-oxy)-6-(2-morpholine-4-yl-ethoxy)-3-phenyl-1H-indene-2-carboxylate cyclohexyl amide], for which, on human PPARγ, the EC50 turned out to be 12 nM.

The molecule `CCOC(=O)C1=C(c2ccccc2)c2cc(OCCCc3ccccc3)ccc2/C1=[N+](/C)[O-]` [Compound 42, 1-(trans-methylimino-N-oxy)-3-phenyl-5-(3-phenylpropoxy)-1H-indene-2-carboxylate ethyl ester] returned an EC50 on human PPARγ of 80 nM.

As to `CCOC(=O)C1=C(c2ccccc2)c2ccc(COCCc3ccccc3)cc2/C1=[N+](/C)[O-]` [Compound 43, 1-(trans-methylimino-N-oxy)-6-phenethyloxymethyl-3-phenyl-1H-indene-2-carboxylate ethyl ester], the 50% effective concentration (EC50) at human PPARγ was 80 nM.

`CCOC(=O)C1=C(c2ccccc2)c2ccc(OCCN3CCOCC3)cc2/C1=[N+](\C)[O-]` [Compound 45, 1-(cis-methylimino-N-oxy)-6-(2-morpholine-4-ylethoxy)-3-phenyl-1H-indene-2-carboxylate ethyl ester] displayed a melting point of 151 to 152 °C.

Molecule `CCOC(=O)C1=C(c2ccccc2)c2cc3c(cc2/C1=[N+](/C)[O-])OCO3` [Compound 48, 1-(trans-methylimino-N-oxy)-5,6-methylenedioxy-1-oxo-3-phenyl-1H-indene-2-carboxylate ethyl ester] displayed a melting point of 119 to 121 °C. The half-maximal effective concentration (EC50) on human PPARγ is 10 nM.

For the molecule `CC(C)NC(=O)C1=C(c2ccccc2)c2ccc(OCCN3CCOCC3)cc2/C1=[N+](/C)[O-]` [Compound 50, 1-(trans-methylimino-N-oxy)-6-(2-morpholine-4-ylethoxy)-3-phenyl-1H-indene-2-carboxylate isopropyl amide], the melting point lay in the range of 123 to 125 °C. The EC50 at human PPARγ worked out at 200 nM.

Turning to `CCOC(=O)C1=C(C2CC2)c2ccc(OCCCc3ccccc3)cc2/C1=[N+](/C)[O-]` [Compound 68, 3-cyclopropyl-1-(trans-methylimino-N-oxy)-6-(3-phenylpropoxy)-1H-indene-2-carboxylate ethyl ester], the EC50 at human PPARγ stood at 10 nM.

`C/[N+]([O-])=C1\C(C(N)=O)=C(c2ccccc2)c2ccc(OCCCc3ccccc3)cc21` [Compound 73, 1-(trans-methylimino-N-oxy)-3-phenyl-6-(3-phenylpropoxy)-1H-indene-2-carboxylate amide] came in with an EC50 on human PPARγ of 110 nM.

Molecule `C/[N+]([O-])=C1\C(C#N)=C(c2ccccc2)c2ccc(OCCCc3ccccc3)cc21` [Compound 75, 1-(trans-methylimino-N-oxy)-3-phenyl-6-(3-phenylpropoxy)-1H-indene-2-carbonitrile] showed a melting point of 126 to 128 °C. The concentration giving a half-maximal response (EC50) on human PPARγ was found to be 95 nM.

With `CCOC(=O)C1=C(c2ccccc2)c2ccc(CN3CCOCC3)cc2/C1=[N+](/C)[O-]` [Compound 77, 1-(trans-methylimino-N-oxy)-6-morpholine-4-ylmethyl-3-phenyl-1H-indene-2-carboxylate ethyl ester], the midpoint of the response on human PPARγ, the EC50, lay at 170 nM.

In turn, `CCOC(=O)C1=C(c2ccccc2)c2ccc(OCCc3ccc(CC)cn3)cc2/C1=[N+](/C)[O-]` [Compound 79, 6-[2-(5-ethylpyridine-2-yl)ethoxy]-1-(trans-methylimino-N-oxy)-3-phenyl-1H-indene-2-carboxylate ethyl ester] yielded a half-maximal effective concentration (EC50) on human PPARγ of 20 nM.

The molecule `CC(C)NC(=O)C1=C(c2ccccc2)c2ccc(OCCc3ccccn3)cc2/C1=[N+](/C)[O-]` [Compound 80, 1-(trans-methylimino-N-oxy)-3-phenyl-6-(2-pyridine-2-ylethoxy)-1H-indene-2-carboxylate isopropyl amide] showed a melting point of 124 to 126 °C. Also, the response at human PPARγ was half-maximal at 100 nM (EC50).

The molecule `CCc1ccc(CCOc2ccc3c(c2)/C(=[N+](/C)[O-])C(C(=O)NC(C)C)=C3c2ccccc2)nc1` [Compound 81, 6-[2-(5-ethylpyridine-2-yl)ethoxy]-1-(trans-methylimino-N-oxy)-3-phenyl-1H-indene-2-carboxylate isopropyl amide] had a half-maximal effective concentration (EC50) on human PPARγ of 45 nM.

`C/[N+]([O-])=C1\C=C(c2ccccc2)c2ccc(OCCN3CCOCC3)cc21` [Compound 82, methyl-[6-(2-morpholine-4-ylethoxy)-3-phenylindene-1-yllidene]amine-N-oxide] displayed a melting point of 122 to 123 °C.

`CC(C)NC(=O)C1=C(c2csc3ccccc23)c2ccc(OCCN3CCOCC3)cc2/C1=[N+](/C)[O-]` [Compound 94, 3-benzo-[b]-thiophene-3-yl-1-(trans-methylimino-N-oxy)-6-(2-morpholine-4-ylethoxy)-1H-indene-2-carboxylate isopropyl amide] had a melting point of 77 to 79 °C. Also, the EC50 at human PPARγ came to 80 nM.

In the case of `CC(C)NC(=O)C1=C(c2ccccc2)c2cc(OCCc3ccccn3)ccc2/C1=[N+](/C)[O-]` [Compound 99, 1-(trans-methylimino-N-oxy)-3-phenyl-5-(2-pyridine-2-ylethoxy)-1H-indene-2-carboxylate isopropyl amide], the melting point fell in the range of 158 to 159 °C.

Turning to `CC(C)NC(=O)C1=C(c2ccccc2)c2cc(OCCN3CCOCC3)ccc2/C1=[N+](/C)[O-]` [Compound 100, 1-(trans-methylimino-N-oxy)-5-(2-morpholine-4-ylethoxy)-3-phenyl-1H-indene-2-carboxylate isopropyl amide], the melting point was in the range of 134 to 137 °C.

`CC(C)OC(=O)C1=C(c2ccccc2)c2ccc(OCCN3CCOCC3)cc2/C1=[N+](\C)[O-]` [Compound 101, 1-(cis-methylimino-N-oxy)-6-(2-morpholine-4-ylethoxy)-3-phenyl-1H-indene-2-carboxylate isopropyl ester] displayed a melting point of 153 to 155 °C.

As to `CN(CCOc1ccc(CC2SC(=O)NC2=O)cc1)c1ccccn1` (centres unmarked) [Rosiglitazone, reference compound], in series [1], the GOT is reported as 70 ± 8.2 karmen, the GPT is reported as 85 ± 12/ karmen, the “Heart Weight” value turned out to be 0.140 ± 0.009 g and the “Liver Weight” value is 1.56 ± 0.18 g. This molecule came in with a Weight in series [1] of 39 ± 1.6 g.
